This note sets out measurements from US12059422B2 (MEI Pharma, Inc., priority 2011, dated 2024).

The assay deals with T1, PI3K gamma (Homo sapiens, UniProt P48736).
T1 construct: purchased Invitrogen Corp., Carlsbad, CA, USA
Briefly: Luciferase-based luminescence assay (ADP Glo), PI3K gamma enzymatic activity. The format is biochemical. To be noted: inhibition of enzymatic activity, 25 μM ATP, read-out: IC50 p110γ. The protocol: PI3K catalyzes the conversion of phosphatidylinositol-4,5-bisphosphate (PIP2) and ATP to phosphatidylinositol-3,4,5-trisphosphate (PIP3) and ADP. For all assays, the reaction buffer comprised 50 mM HEPES, pH 7.5, 3 mM MgCl2, 1 mM EGTA, 100 mM NaCl, 0.03% CHAPS and 2 mM DTT. Compounds for testing were dissolved and serially diluted in 100% DMSO (total of 10 concentrations), then diluted 1:25 in reaction buffer.
PI3K beta and gamma enzymatic activity was determined by measuring the amount of ADP produced following the kinase reaction using a luciferase-based luminescence assay (ADP Glo®, Promega Corp., Madison, WI, USA). PI3K enzyme solutions were prepared by diluting PI3K beta (Millipore, Billerica, MA, USA) or PI3K gamma (Invitrogen Corp., Carlsbad, CA, USA) in reaction buffer, to 4× the final assay concentration (final concentrations of enzymes were 4.8 nM and 7.6 nM for PI3K beta and PI3K gamma respectively). A substrate solution was prepared by mixing PIP2 and ATP in reaction buffer at 2× the final assay concentration (final concentrations were 50 μM and 25 μM for PIP2 and ATP respectively). 2.5 μL each of the compound and kinase mixtures were added to individual wells of white low volume 384-well assay plates and mixed by shaking. The reactions were started by adding 5 μL of substrate mixture per well and shaking. The assay plates were covered and reactions were allowed to proceed for 1 hour. Then, 5 μL of reaction mix was transferred to another white low volume 384-well plate, and 5 μL of ADP-Glo™ reagent was added. The plates were briefly centrifuged and incubated for 40 minutes, after which 10 μL of kinase detection buffer was added. The plates then were centrifuged briefly, shaken slowly and equilibrated at room temperature for 30 minutes, after which luminescence was measured using a FlexStation plate reader (Molecular Devices, Sunnyvale, CA, USA). IC50 values were determined by curve fitting using Graphpad Prism software (Graphpad Software, La Jolla, CA, USA).
(ADP-Glo first removes unused ATP, then detects ADP through luciferase.)

T1 sequence (P48736 whole entry, species assumed): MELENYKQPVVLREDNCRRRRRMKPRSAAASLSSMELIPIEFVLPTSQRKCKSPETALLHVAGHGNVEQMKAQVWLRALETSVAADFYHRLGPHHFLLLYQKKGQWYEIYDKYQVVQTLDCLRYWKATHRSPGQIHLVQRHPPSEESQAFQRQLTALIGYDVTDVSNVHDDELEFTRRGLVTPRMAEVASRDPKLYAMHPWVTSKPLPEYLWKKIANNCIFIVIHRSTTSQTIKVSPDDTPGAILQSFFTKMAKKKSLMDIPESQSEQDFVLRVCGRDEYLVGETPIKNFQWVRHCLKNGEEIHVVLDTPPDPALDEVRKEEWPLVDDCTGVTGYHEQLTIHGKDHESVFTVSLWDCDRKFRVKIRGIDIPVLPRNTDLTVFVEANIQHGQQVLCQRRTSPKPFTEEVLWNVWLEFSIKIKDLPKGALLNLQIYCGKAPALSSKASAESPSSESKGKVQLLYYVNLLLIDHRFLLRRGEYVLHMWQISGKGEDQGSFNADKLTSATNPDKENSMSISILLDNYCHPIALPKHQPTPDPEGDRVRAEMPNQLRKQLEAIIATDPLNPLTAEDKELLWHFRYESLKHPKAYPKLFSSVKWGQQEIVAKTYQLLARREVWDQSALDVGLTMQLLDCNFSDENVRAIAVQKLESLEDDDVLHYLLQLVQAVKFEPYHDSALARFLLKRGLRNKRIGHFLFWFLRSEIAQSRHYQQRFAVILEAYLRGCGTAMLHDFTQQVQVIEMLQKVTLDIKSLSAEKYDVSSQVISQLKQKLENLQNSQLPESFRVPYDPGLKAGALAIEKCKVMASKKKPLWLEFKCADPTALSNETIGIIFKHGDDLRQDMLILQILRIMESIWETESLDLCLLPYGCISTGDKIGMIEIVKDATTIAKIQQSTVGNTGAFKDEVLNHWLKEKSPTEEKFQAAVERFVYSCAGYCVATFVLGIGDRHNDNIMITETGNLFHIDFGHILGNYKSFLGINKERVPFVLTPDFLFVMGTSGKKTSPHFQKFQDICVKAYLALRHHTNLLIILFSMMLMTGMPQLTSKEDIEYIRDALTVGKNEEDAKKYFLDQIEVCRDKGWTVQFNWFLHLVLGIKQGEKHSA

By IC50 is commonly meant the concentration that gives 50% inhibition. In the case of `CC(C)(Cc1ccccc1)Nc1nc(N2CCOCC2)nc(-n2c(C(F)F)nc3ccccc32)n1` [Compound A14, 4-(2-(difluoromethyl)-1H-benzo[d]imidazol-1-yl)-N-(2-methyl-1-phenylpropan-2-yl)-6-morpholino-1,3,5-triazin-2-amine], the IC50 was 200 to 500 nM.

In the case of `CC(C)(Cc1ccccc1F)Nc1nc(N2CCOCC2)nc(-n2c(C(F)F)nc3ccccc32)n1` [Compound A15, 4-(2-(difluoromethyl)-1H-benzo[d]imidazol-1-yl)-N-(1-(2-fluorophenyl)-2-methylpropan-2-yl)-6-morpholino-1,3,5-triazin-2-amine], the half-maximal inhibitory concentration (IC50) was greater than 500 nM.

In the case of `CC(C)(Cc1ccccc1Cl)Nc1nc(N2CCOCC2)nc(-n2c(C(F)F)nc3ccccc32)n1` [Compound A16, 4-(2-(difluoromethyl)-1H-benzo[d]imidazol-1-yl)-N-(1-(2-chlorophenyl)-2-methylpropan-2-yl)-6-morpholino-1,3,5-triazin-2-amine], the IC50 was in the range of 200 to 500 nM.

For `Cc1ccccc1CC(C)(C)Nc1nc(N2CCOCC2)nc(-n2c(C(F)F)nc3ccccc32)n1` [Compound A18, 4-(2-(difluoromethyl)-1H-benzo[d]imidazol-1-yl)-N-(2-methyl-1-(o-tolyl)propan-2-yl)-6-morpholino-1,3,5-triazin-2-amine], the IC50 fell in the range of 200 to 500 nM.

Turning to `COc1ccccc1CC(C)(C)Nc1nc(N2CCOCC2)nc(-n2c(C(F)F)nc3ccccc32)n1` [Compound A19, 4-(2-(difluoromethyl)-1H-benzo[d]imidazol-1-yl)-N-(1-(2-methoxyphenyl)-2-methylpropan-2-yl)-6-morpholino-1,3,5-triazin-2-amine], the IC50 lay in the range of 200 to 500 nM.

With `COc1cccc(CC(C)(C)Nc2nc(N3CCOCC3)nc(-n3c(C(F)F)nc4ccccc43)n2)c1` [Compound A21, 4-(2-(difluoromethyl)-1H-benzo[d]imidazol-1-yl)-N-(1-(3-methoxyphenyl)-2-methylpropan-2-yl)-6-morpholino-1,3,5-triazin-2-amine], the IC50 was greater than 500 nM.

Turning to `CC(C)(Cc1ccc(F)cc1)Nc1nc(N2CCOCC2)nc(-n2c(C(F)F)nc3ccccc32)n1` [Compound A22, 4-(2-(difluoromethyl)-1H-benzo[d]imidazol-1-yl)-N-(1-(4-fluorophenyl)-2-methylpropan-2-yl)-6-morpholino-1,3,5-triazin-2-amine], the IC50 was 200 to 500 nM.

`CC(C)(Cc1cccc2ccccc12)Nc1nc(N2CCOCC2)nc(-n2c(C(F)F)nc3ccccc32)n1` [Compound A27, 4-(2-(difluoromethyl)-1H-benzo[d]imidazol-1-yl)-N-(2-methyl-1-(naphthalen-1-yl)propan-2-yl)-6-morpholino-1,3,5-triazin-2-amine]: the IC50 was no more than 100 nM.

With `CC(C)(Cc1ccccc1-c1ccncc1)Nc1nc(N2CCOCC2)nc(-n2c(C(F)F)nc3ccccc32)n1` [Compound A33, 4-(2-(difluoromethyl)-1H-benzo[d]imidazol-1-yl)-N-(2-methyl-1-(2-(pyridin-4-yl)phenyl)propan-2-yl)-6-morpholino-1,3,5-triazin-2-amine], the IC50 lay within 200 to 500 nM.

Consider `CN1CCC(c2ccccc2CC(C)(C)Nc2nc(N3CCOCC3)nc(-n3c(C(F)F)nc4ccccc43)n2)CC1` [Compound A35, 4-(2-(difluoromethyl)-1H-benzo[d]imidazol-1-yl)-N-(2-methyl-1-(2-(1-methylpiperidin-4-yl)phenyl)propan-2-yl)-6-morpholino-1,3,5-triazin-2-amine], for which the IC50 is greater than 500 nM.

Turning to `CC(C)(Cc1cccc(F)c1)Nc1nc(N2CCOCC2)nc(-n2c(C(F)F)nc3ccccc32)n1` [Compound A39, 4-(2-(difluoromethyl)-1H-benzo[d]imidazol-1-yl)-N-(1-(3-fluorophenyl)-2-methylpropan-2-yl)-6-morpholino-1,3,5-triazin-2-amine], the IC50 was in the range of 200 to 500 nM.

Take `CC(C)(Cc1ccccc1-c1cccnc1)Nc1nc(N2CCOCC2)nc(-n2c(C(F)F)nc3ccccc32)n1` [Compound A40, 4-(2-(difluoromethyl)-1H-benzo[d]imidazol-1-yl)-N-(2-methyl-1-(2-(pyridin-3-yl)phenyl)propan-2-yl)-6-morpholino-1,3,5-triazin-2-amine]: the IC50 lay within 200 to 500 nM.

As for `COc1cc(-c2ccccc2CC(C)(C)Nc2nc(N3CCOCC3)nc(-n3c(C(F)F)nc4ccccc43)n2)ccn1` [Compound A41, 4-(2-(difluoromethyl)-1H-benzo[d]imidazol-1-yl)-N-(1-(2-(2-methoxypyridin-4-yl)phenyl)-2-methylpropan-2-yl)-6-morpholino-1,3,5-triazin-2-amine], the IC50 was greater than 500 nM.

As to `Cc1cc(-c2ccccc2CC(C)(C)Nc2nc(N3CCOCC3)nc(-n3c(C(F)F)nc4ccccc43)n2)ccn1` [Compound A43, 4-(2-(difluoromethyl)-1H-benzo[d]imidazol-1-yl)-N-(2-methyl-1-(2-(2-methylpyridin-4-yl)phenyl)propan-2-yl)-6-morpholino-1,3,5-triazin-2-amine], the IC50 is greater than 500 nM.

As to `CC(C)(Cc1ccccc1-c1cn[nH]c1)Nc1nc(N2CCOCC2)nc(-n2c(C(F)F)nc3ccccc32)n1` [Compound A44, 4-(2-(difluoromethyl)-1H-benzo[d]imidazol-1-yl)-N-(1-(2-(1H-pyrazol-4-yl)phenyl)-2-methylpropan-2-yl)-6-morpholino-1,3,5-triazin-2-amine], the IC50 fell in the range of 100 to 200 nM.

On to `Cn1cc(-c2ccccc2CC(C)(C)Nc2nc(N3CCOCC3)nc(-n3c(C(F)F)nc4ccccc43)n2)cn1` [Compound A45, 4-(2-(difluoromethyl)-1H-benzo[d]imidazol-1-yl)-N-(2-methyl-1-(2-(1-methyl-1H-pyrazol-4-yl)phenyl)propan-2-yl)-6-morpholino-1,3,5-triazin-2-amine], for which the IC50 is 200 to 500 nM.

For the molecule `Cn1nccc1-c1ccccc1CC(C)(C)Nc1nc(N2CCOCC2)nc(-n2c(C(F)F)nc3ccccc32)n1` [Compound A46, 4-(2-(difluoromethyl)-1H-benzo[d]imidazol-1-yl)-N-(2-methyl-1-(2-(1-methyl-1H-pyrazol-5-yl)phenyl)propan-2-yl)-6-morpholino-1,3,5-triazin-2-amine], the IC50 is greater than 500 nM.

Consider `Cc1cccc(CC(C)(C)Nc2nc(N3CCOCC3)nc(-n3c(C(F)F)nc4ccccc43)n2)c1` [Compound A49, 4-(2-(difluoromethyl)-1H-benzo[d]imidazol-1-yl)-N-(2-methyl-1-m-tolylpropan-2-yl)-6-morpholino-1,3,5-triazin-2-amine], for which the half-maximal inhibitory concentration (IC50) was in the range of 200 to 500 nM.

`COc1cc(CC(C)(C)Nc2nc(N3CCOCC3)nc(-n3c(C(F)F)nc4ccccc43)n2)ccc1F` [Compound A50, 4-(2-(difluoromethyl)-1H-benzo[d]imidazol-1-yl)-N-(1-(4-fluoro-3-methoxyphenyl)-2-methylpropan-2-yl)-6-morpholino-1,3,5-triazin-2-amine]: the IC50 was greater than 500 nM.

As to `CC(C)(Cc1ccc(F)cc1F)Nc1nc(N2CCOCC2)nc(-n2c(C(F)F)nc3ccccc32)n1` [Compound A51, 4-(2-(difluoromethyl)-1H-benzo[d]imidazol-1-yl)-N-(1-(2,4-difluorophenyl)-2-methylpropan-2-yl)-6-morpholino-1,3,5-triazin-2-amine], the IC50 was 200 to 500 nM.

For `CC(C)(Cc1c(F)cccc1F)Nc1nc(N2CCOCC2)nc(-n2c(C(F)F)nc3ccccc32)n1` [Compound A52, 4-(2-(difluoromethyl)-1H-benzo[d]imidazol-1-yl)-N-(1-(2,6-difluorophenyl)-2-methylpropan-2-yl)-6-morpholino-1,3,5-triazin-2-amine], the IC50 is no more than 100 nM.

Regarding `CC(C)(Cc1ccccc1-c1ccccc1F)Nc1nc(N2CCOCC2)nc(-n2c(C(F)F)nc3ccccc32)n1` [Compound A59, 4-(2-(difluoromethyl)-1H-benzo[d]imidazol-1-yl)-N-(1-(2′-fluorobiphenyl-2-yl)-2-methylpropan-2-yl)-6-morpholino-1,3,5-triazin-2-amine], the IC50 was greater than 500 nM.

Consider `Cc1ccccc1-c1ccccc1CC(C)(C)Nc1nc(N2CCOCC2)nc(-n2c(C(F)F)nc3ccccc32)n1` [Compound A60, 4-(2-(difluoromethyl)-1H-benzo[d]imidazol-1-yl)-N-(2-methyl-1-(2′-methylbiphenyl-2-yl)propan-2-yl)-6-morpholino-1,3,5-triazin-2-amine], for which the IC50 is greater than 500 nM.

In the case of `CC(C)(Cc1ccccc1-c1ccccc1Cl)Nc1nc(N2CCOCC2)nc(-n2c(C(F)F)nc3ccccc32)n1` [Compound A61, 4-(2-(difluoromethyl)-1H-benzo[d]imidazol-1-yl)-N-(1-(6′-chlorobiphenyl-2-yl)-2-methylpropan-2-yl)-6-morpholino-1,3,5-triazin-2-amine], the IC50 is greater than 500 nM.

As for `CC(C)(Cc1ccccc1-c1cccnc1F)Nc1nc(N2CCOCC2)nc(-n2c(C(F)F)nc3ccccc32)n1` [Compound A62], the IC50 is greater than 500 nM.
